Measured values taken from US20080207617A1, “Quinoline Derivatives and Quinazoline Derivatives Inhibiting Autophosphrylation of Flt3 and Medicinal Compositions Containing the Same” (KIRIN BEER KABUSHIKI KAISHA, priority 2002, published 2008).
Structures can show the parent of a compound that is named as a salt. Where two headings read alike, the source gives them in different places.

Assays:
[1] = system: MOLM13; assay: Cell growth inhibitory activities on cultured human leukemia cells MOLM-13 (WST-1); assay type: cell-based; details: 3 days culture
Procedure: Pharmacological Test Example 4
Cell Growth Inhibitory Activities on Cultured Human Leukemia Cells
(§1) Human leukemia cells MOLM13 (subdivided from Hayashibara Biochemical Laboratories, Inc.) were seeded in an amount of 3×10^3 using a DMEM medium containing 10% fetal calf serum (purchased from GIBCO) in a 96-well flat bottom plate. A solution of a test compound in dimethyl sulfoxide was added to each well and was cultured in a 5% carbon dioxide incubator for 3 days. Three days after the initiation of the culture, 10 μl of a WST-1 solution in Cell Counting Kit (purchased from Wako Pure Chemical Industries, Ltd.) was added to each well for a color reaction. After proper color development, the absorbance was measured with a microplate reader under conditions of measurement wavelength 450 nm and reference wavelength 650 nm. The growth ratio for each well was determined by presuming the absorbance without the addition of the medicament to be 100% growth ratio and the absorbance of the well without seeding of the cells to be 0% growth ratio. The concentration of the test compound was varied on several levels, the cell growth ratio for each case was determined, and the concentration of the test compound necessary for inhibiting 50% of cell growth ratio (IC50) was calculated.

[2] = system: MOLM13; assay: Cell growth inhibitory activity using MTT method (MOLM13); assay type: cell-based, human; details: MOLM13 cells
Procedure: Pharmacological Test Example 3
Measurement of Cell Growth Inhibitory Activity Using MTT Method
Human leukemia cell line MOLM13 (subdivided from Hayashibara Biochemical Laboratories, Inc.) was cultured in an RPMI medium containing 10% fetal calf serum (purchased from Asahi Techno Glass Corporation) within a 5% carbon dioxide incubator until the cell density reached 50 to 90% of the maximum cell density. These cells were seeded into wells, containing an RPMI medium containing 10% fetal calf serum, in a 96-well flat bottom plate in an amount of […] per well. The amount of the solution of the medium in each well was brought to 100 μl, and a test compound was added thereto to 500 ng, 100 ng, 20 ng, and 4 ng per ml. After culture within an incubator for 72 hr, 10 μl of a 5 mg/ml MTT (3-(4,5-dimethylthiazol-2-yl)-2,5-diphenyl tetrazolium bromide) solution (purchased from SIGMA) was added to the medium, and a reaction was allowed to proceed for 4 hr. Thereafter, 100 μl of a 0.04 N hydrochloric acid-isopropanol solution was added to completely dissolve the resultant MTT formazan crystal. After the dissolution, absorbance at 550 nm was measured using 620 nm as a reference wavelength with a microplate reader (DIGISCAN) (It is regarded that, in the MTT method, the viable cell count is reflected, and linearity is observed in a cell count per well range of 5×10^5 to 2×10^2 cells). After 72 hr, the absorbance of only the medium free from cells was subtracted from the absorbance of the well without the addition of the test compound to determine a value which was presumed to be 100%. On the other hand, the absorbance with the addition of the compound was expressed in terms of % growth.

[3] = system: MOLM13; assay: Tumor growth inhibitory activities in nude mice xenograft model inoculated with human leukemia cells MOLM13; assay type: in vivo; details: Mus musculus, MOLM-13, po, 50 mg/kg orally once a day, read-out: TGIR (%) (measurement date)
Procedure: Pharmacological Test Example 5
Tumor Growth Inhibitory Activities in Nude Mice Xenograft Model Inoculated with Human Leukemia Cells
Human leukemia cells MOLM13 (subdivided from Hayashibara Biochemical Laboratories, Inc.) were subcutaneously transplanted into nude mice. […] The test compound suspended or dissolved in 0.5% methylcellulose was orally administered at a dose of 0.1 ml per 10 g body weight once a day for 9 days. For the control group, only vehicle was administered.
The tumor growth inhibition rate (TGIR) was calculated as follows:
The tumor growth inhibition rate (TGIR)=(1−TX/CX)×100
wherein CX represents the volume of tumor at day X for the control group when the tumor volume at the day of the start of the administration (day 1) was presumed to be 1; and TX represents the volume of tumor at day X for test compound administration groups.

[4] = system: MV4-11; assay: Cell growth inhibitory test MV4-11 (WST-1); assay type: cell-based, human; details: MV4-11 cells, 3 days culture
Procedure: Pharmacological Test Example 2
Cell Growth Inhibitory Test
MV4-11 (ATCC number: CRL-9591) as human leukemia cells was seeded in an amount of 3×10^3 using a DMEM medium containing 10% fetal calf serum (purchased from GIBCO) in a 96-well flat bottom plate.
as §1, with “A” for “Human leukemia cells MOLM13 (subdivided from Hayashibara Biochemical Laboratories, Inc.) were seeded in an amount of 3×10^3 using a DMEM medium containing 10% fetal calf serum (purchased from GIBCO) in a 96-well flat bottom plate. A”

IC50 ([1]; Homo sapiens, MOLM-13, 72 h) [nM]	IC50 ([2]; Homo sapiens, MOLM-13, 72 h) [nM]	IC50 ([4]; Homo sapiens, MV4-11, 72 h) [nM]	IC50 [1] [nM]	IC50 ([2]; 72 hr) [nM]	IC50 [4] [nM]	Structure (SMILES)	inhibition in vivo at 50 mg/kg ([3]; 240 h, day 10) [%]	inhibition in vivo at 50 mg/kg ([3]; 216 h, day 9) [%]
6	5.37	5	–	–	–	COc1cc2nccc(Oc3ccc(NC(=O)NC4CCCC(C)(C)C4)cc3Cl)c2cc1OC (stereo not drawn) [Compound 12, 1-[3-Chloro-4-(6,7-dimethoxy-quinolin-4-yloxy)-phenyl]-3-(3,3-dimethyl-cyclohexyl)-urea]	93.7	–
21	3.87	18	–	–	–	COc1cc2nccc(Oc3ccc(NC(=O)NC4CC(C)CC(C)(C)C4)cc3Cl)c2cc1OC (stereo not drawn) [Compound 13, 1-[3-Chloro-4-(6,7-dimethoxy-quinolin-4-yloxy)-phenyl]-3-(3,3,5-trimethyl-cyclohexyl)-urea]	84.8	–
3	5.13	2	–	–	–	COc1cc2nccc(Oc3ccc(NC(=O)NC4CCCC(C)(C)C4)cc3F)c2cc1OC (stereo not drawn) [Compound 14, 1-[4-(6,7-Dimethoxy-quinolin-4-yloxy)-3-fluoro-phenyl]-3-(3,3-dimethyl-cyclohexyl)-urea]	96.1	–
22	9.5	11	–	–	–	COc1cc2nccc(Oc3ccc(NC(=O)NC4CC(C)CC(C)(C)C4)cc3F)c2cc1OC (stereo not drawn) [Compound 15, 1-[4-(6,7-Dimethoxy-quinolin-4-yloxy)-3-fluoro-phenyl]-3-(3,3,5-trimethyl-cyclohexyl)-urea]	89.4	–
9	24.6	4	–	–	–	COc1cc2c(Oc3ccc(NC(=O)NCCC4CCCC4)c(F)c3)ccnc2cc1OCCN1CCCCC1 [Compound 65, 1-(2-Cyclopentyl-ethyl)-3-{2-fluoro-4-[6-methoxy-7-(2-piperidin-1-yl-ethoxy)-quinolin-4-yloxy]-phenyl}-urea]	–	–
–	–	–	4	16.1	2	COc1cc2c(Oc3ccc(NC(=O)NCCC(C)(C)C)c(F)c3)ccnc2cc1OCCN1CCOCC1 [Compound 67, 1-(3,3-Dimethyl-butyl)-3-{2-fluoro-4-[6-methoxy-7-(2-morpholin-4-yl-ethoxy)-quinolin-4-yloxy]-phenyl}-urea]	–	–
1	13.3	< 1	–	–	–	COc1cc2nccc(Oc3ccc(NC(=O)NCCC(C)(C)C)cc3)c2cc1OCCN1CCOCC1 [Compound 68, 1-(3,3-Dimethyl-butyl)-3-{4-[7-methoxy-6-(2-morpholin-4-yl-ethoxy)-quinolin-4-yloxy]-phenyl}-urea]	–	–
8	17.7	2	–	–	–	COc1cc2c(Oc3ccc(NC(=O)NC4CCCC(C)(C)C4)c(F)c3)ccnc2cc1OCCN1CCOCC1 (stereo not drawn) [Compound 69, 1-(3,3-Dimethyl-cyclohexyl)-3-{2-fluoro-4-[6-methoxy-7-(2-morpholin-4-yl-ethoxy)-quinolin-4-yloxy]-phenyl}-urea]	–	–
3	29.6	2	–	–	–	COc1cc2c(Oc3ccc(NC(=O)NCCC(C)(C)C)cc3Cl)ccnc2cc1OCCN1CC(C)OC(C)C1 (stereo not drawn) [Compound 70, 1-(3-Chloro-4-{7-[2-(2,6-dimethyl-morpholin-4-yl)-ethoxy]-6-methoxy-quinolin-4-yloxy}-phenyl)-3-(3,3-dimethyl-butyl)-urea]	–	–
8	54.5	3	–	–	–	COc1cc2c(Oc3ccc(NC(=O)NCCC4CCCCC4)c(F)c3)ccnc2cc1OCCN1CCOCC1 [Compound 72, 1-(2-Cyclohexyl-ethyl)-3-{2-fluoro-4-[6-methoxy-7-(2-morpholin-4-yl-ethoxy)-quinolin-4-yloxy]-phenyl}-urea]	–	–
20	21.5	6	–	–	–	COc1cc2c(Oc3ccc(NC(=O)NCCC(C)C)c(F)c3)ccnc2cc1OCCN1CCOCC1 [Compound 73, 1-{2-Fluoro-4-[6-methoxy-7-(2-morpholin-4-yl-ethoxy)-quinolin-4-yloxy]-phenyl}-3-(3-methyl-butyl)-urea]	–	–
< 1	–	< 1	–	–	–	COc1cc2c(Oc3ccc(NC(=O)NCCC(C)(C)C)cc3)ccnc2cc1OCCCN1CCN(C)CC1 [Compound 75, 1-(3,3-Dimethyl-butyl)-3-(4-{6-methoxy-7-[3-(4-methyl-piperazin-1-yl)-propoxy]-quinolin-4-yloxy}-phenyl)-urea hydrochloride]	–	94.1
–	–	–	–	–	–	COc1cc2c(Oc3ccc(NC(=O)NCCC(C)(C)C)c(F)c3)ccnc2cc1OCCCN1CCN(C)CC1 [Compound 76, 1-(3,3-Dimethyl-butyl)-3-(2-fluoro-4-{6-methoxy-7-[3-(4-methyl-piperazin-1-yl)-propoxy]-quinolin-4-yloxy}-phenyl)-urea]	–	34.3
–	–	–	–	–	–	COc1cc2c(Oc3ccc(NC(=O)NCCC(C)(C)C)cc3Cl)ccnc2cc1OCCCN1CCN(C)CC1 [Compound 77, 1-(3,3-Dimethyl-butyl)-3-(3-chloro-4-{6-methoxy-7-[3-(4-methyl-piperazin-1-yl)-propoxy]-quinolin-4-yloxy}-phenyl)-urea]	–	70.4
